Test results: US8415376B2, “Inhibitors of PI3 kinase” (Amgen Inc., priority 2008, dated 2013)

Assays:
PI3Kα = target: T1, PI3Kα (Homo sapiens, UniProt P42336); experiment: In vitro PI3K AlphaScreen assay; format: biochemical; settings: average if run more than once
T1 construct: Full length p110 subunits of PI3K α, β and δ, N-terminally labeled with polyHis tag; polyHis (N); made in house; host or cells: Sf9 insect cells (baculovirus)
Protocol: In Vitro PI3K Alphascreen® Assay
The PI3K AlphaScreen® assay (PerkinElmer, Waltham, Mass.) measures the activity of a panel of four phosphoinositide 3-kinases: PI3Kα, PI3Kβ, PI3Kγ, and PI3Kδ. Each of these enzymes phosphorylates the 3′-hydroxyl group on phosphatidylinositiol (4,5)-bisphosphate (PIP2) to produce phosphatidylinositol (3,4,5)-trisphosphate (PIP3). This phosphorylation activity is measured using a GST-tagged PIP3 binding protein (Echelon Biosciences, Salt Lake City, Utah), an anti-GST-tagged Acceptor bead, and streptavidin-Donor bead. […] In the absence of this interaction, proximity of the Donor and Acceptor beads is decreased, producing a loss of luminescent signal which is inversely proportional to PI3K activity.
The enzyme reaction buffer is made using sterile water (Baxter, Deerfield, Ill.) and 50 mM Tris HCl pH 7, 14 mM MgCl2, 2 mM sodium cholate, and 100 mM NaCl. 2 mM DTT is added fresh the day of the experiment. The AlphaScreen® reaction buffer is made using sterile water and 10 mM Tris HCl pH 7.5, 150 mM NaCl, 0.10% Tween 20, and 30 mM EDTA. 1 mM DTT is added fresh the day of the experiment.
The source plates for this assay are 384-well Greiner clear polypropylene plates containing test compounds at 5mM and diluted 1:2 over 22 points. […] Source plates are replicated into 384-well Optiplates (PerkinElmer, Waltham, Mass.), 0.5 μL/well, to make assay-ready plates.
The different PI3K isoforms are each diluted in enzyme reaction buffer to 2× working solutions. […] Two different 2× substrate solutions are made in enzyme reaction buffer. In one solution, PI(4,5)P2 (Echelon Biosciences, Salt Lake City, Utah) is diluted to 10 μM and ATP is diluted to 20 μM. This solution is used in the assays testing PI3Kα and PI3Kβ. In a second solution, PI(4,5)P2 is diluted to 10 μM and ATP is diluted to 8 μM. This solution used in the assays testing PI3Kγ and PI3Kδ.
The AlphaScreen® reaction solutions are made using beads from the anti-GST AlphaScreen® kit (PerkinElmer, Waltham, Mass.). Two solutions are made in Alphascreen reaction buffer to 4× working concentrations. In one solution, biotinylated-IP4 (Echelon Biosciences, Salt Lake City, Utah) is diluted to 40 nM and streptavadin-Donor Beads are diluted to 80 μg/mL. In the second solution, PIP3-binding protein (Echelon Biosciences, Salt Lake City, Utah) is diluted to 40 nM and anti-GST-Acceptor Beads are diluted to 80 μg/mL. 10 μL/well of enzyme reaction buffer is added to Column 24 of the assay ready plates in place of enzyme. This is done for plates in the PI3Kα, β, and 67 assays.
Using a 384-well dispensing Multidrop (Titertek, Huntsville, Ala.), 10 μL/well of 2× enzyme (PI3Kα, β, δ) is added to Columns 1-23 of the appropriate assay ready plates (for PI3Kγ 10 μL is added to Columns 1-24). 10 μL/well of the appropriate substrate solution (the solution with 20 μM ATP for PI3Kα and β assays, and the solution with 8 μM ATP for PI3Kγ and δ assays) is then added to Columns 1-24 of the plates. Plates are then incubated at room temperature for 20 minutes.
In the dark, 10 μL/well of the Donor Bead solution is added to Columns 1-24 of the plates to quench the enzyme reaction. The plates are incubated at room temperature for 30 minutes. Still in the dark, 10 μL/well of the Acceptor Bead solution is also added to Columns 1-24 of the plates. The plates are then incubated in the dark for 1.5 hours. The plates are read on an Envision Multilabel Plate Reader (PerkinElmer, Waltham, Mass.) with a 680 nm excitation filter and a 520-620 nm emission filter.

mTOR = target: T2, mTOR (Homo sapiens, UniProt P42345); experiment: In vitro mTOR assay (Lanthascreen); format: biochemical; settings: average if run more than once
T2 construct: purchased Invitrogen (Carlsbad, Calif.)
T2 sequence (P42345 1360-2549 limits assumed): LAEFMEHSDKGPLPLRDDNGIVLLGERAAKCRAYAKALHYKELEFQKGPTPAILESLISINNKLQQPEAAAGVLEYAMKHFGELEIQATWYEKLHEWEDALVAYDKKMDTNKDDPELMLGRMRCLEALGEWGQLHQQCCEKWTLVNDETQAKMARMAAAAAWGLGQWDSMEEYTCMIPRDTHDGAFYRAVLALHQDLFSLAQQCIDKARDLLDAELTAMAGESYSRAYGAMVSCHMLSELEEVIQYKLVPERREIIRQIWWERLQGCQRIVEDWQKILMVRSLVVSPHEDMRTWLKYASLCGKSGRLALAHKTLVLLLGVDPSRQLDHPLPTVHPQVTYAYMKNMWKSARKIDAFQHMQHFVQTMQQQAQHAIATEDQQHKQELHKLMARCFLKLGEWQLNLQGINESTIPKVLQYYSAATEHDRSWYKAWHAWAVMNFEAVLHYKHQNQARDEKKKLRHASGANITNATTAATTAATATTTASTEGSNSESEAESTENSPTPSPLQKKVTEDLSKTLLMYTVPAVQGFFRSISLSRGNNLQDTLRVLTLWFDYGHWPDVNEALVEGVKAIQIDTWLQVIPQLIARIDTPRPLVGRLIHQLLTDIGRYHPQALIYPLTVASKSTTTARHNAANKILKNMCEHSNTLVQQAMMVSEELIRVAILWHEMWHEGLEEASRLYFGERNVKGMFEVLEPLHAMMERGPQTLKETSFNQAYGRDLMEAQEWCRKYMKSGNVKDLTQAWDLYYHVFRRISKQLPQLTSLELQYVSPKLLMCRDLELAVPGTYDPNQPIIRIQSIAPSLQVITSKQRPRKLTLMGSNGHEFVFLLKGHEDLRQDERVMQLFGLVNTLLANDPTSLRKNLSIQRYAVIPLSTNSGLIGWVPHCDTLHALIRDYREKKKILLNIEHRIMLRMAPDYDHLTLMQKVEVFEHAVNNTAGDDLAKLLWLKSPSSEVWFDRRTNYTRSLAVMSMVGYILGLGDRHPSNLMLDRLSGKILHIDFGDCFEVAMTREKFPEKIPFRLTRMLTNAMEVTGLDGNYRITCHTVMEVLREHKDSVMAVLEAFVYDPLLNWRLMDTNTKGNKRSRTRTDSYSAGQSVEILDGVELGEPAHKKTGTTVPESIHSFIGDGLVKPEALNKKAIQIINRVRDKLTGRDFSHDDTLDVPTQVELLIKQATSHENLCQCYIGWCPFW
From the text: The Invitrogen (Carlsbad, Calif.) mammalian target of rapamycin (mTOR) Lanthascreen assay can be used to quantitate mTOR kinase activity in an in vitro setting. Active mTOR phosphorylates eukaryotic translation initiation factor 4E binding protein 1 (4E-BP1) on residue threonine 46. This phosphorylation event can be detected with a phospho-specific terbium (Tb) labeled Ab, in turn bringing the Tb label in close proximity to the GFP tagged 4E-BP1 and allowing for time-resolved fluorescence resonance energy transfer (TR-FRET), which correlates 4E-BP1 phosphorylation levels with mTOR kinase activity.
Enzyme reaction buffer can be prepared in deionized water containing 50 mM HEPES (pH 7.5), 0.01% Polysorbate 20, 1 mM EGTA, and 10 mM MnCl2.
Dilutions of the compound to be tested can be prepared in 96-well polypropylene plates (Fisher Scientific, Waltham, Mass.). One row represents a 10-point dose of compound diluted 1:3 in enzyme reaction buffer and 20% dimethyl sulfoxide (DMSO). The top concentration for all compounds is 36 μM. Wells 6 and 12 can serve as the no compound (DMSO only) and high compound controls.
An mTOR substrate solution can prepared in enzyme reaction buffer containing 1600 nM green fluorescent protein tagged eukaryotic translation initiation factor 4E binding protein 1 (GFP-4E-BP1) (Invitrogen, Carlsbad, Calif.) and 28 uM adenosine triphosphate (ATP) (Calbiochem, Gibbstown, N.J.).
mTOR enzyme (Invitrogen, Carlsbad, Calif.) can be diluted in enzyme reaction buffer to a working concentration of 100 ng/mL.
The enzyme assay can be run in 384 well low volume assay plates (Corning, Corning, N.Y.). 2.5 uL of substrate solution containing GFP-4E-BP1 and ATP can be added to appropriate wells in the assay plate followed by 2.5 μL of compound dilutions. 5 μL of appropriately diluted mTOR enzyme can be added and the reaction allowed to proceed for 1 hour at room temperature. Final reagent concentrations in the enzyme assay are 50 ng/mL mTOR, 400 nM GFP-4E-BP1, and 7 μM ATP.
The enzyme assay can be terminated upon the addition of 10 μL of 20 mM EDTA and 4 nM Tb-labeled anti-phospho-4E-BP1 [T46] antibody (Invitrogen, Carlsbad, Calif.). The assay plate can then be incubated at room temperature for 1 hour and results read on a Tecan Safire II plate reader (Tecan, Männedorf, Switzerland).

[1] = tested on: phosphorylation of Akt at Serine 473; experiment: pAkt AlphaScreen (U87 cell); format: cell-based; settings: Homo sapiens, U-87 MG; U87 MG cells, pAkt Ser473; average
Protocol: pAkt Alphascreen (U87 Cell)
The pAkt AlphaScreen® assay (PerkinElmer, Waltham, Mass.) determines whether there is phosphorylation of Akt at Serine 473 by recruitment of a phosphospecific antibody. This assay was performed using U87 MG cells. The U87 growth media consists of MEM (Gibco, Carlsbad, Calif.) supplemented with 10% FBS (Gibco,), 1× Non-Essential Amino Acids (Gibco,) and 1× Penicillin/Streptomycin/Glutamine (Gibco). The cells were maintained weekly using 0.05% Trypsin (Gibco) and replated in 150 mm TC-Treated Culture Dishes (Corning, Corning, N.Y.).
The first day of the assay, the adherent cells were trypsinized, media was added to the loose cells and cells were mixed to a homogenous mixture. 0.5 ml of the homogenous mixture was counted on the Beckman Coulter® Vi-CELL™ XR (Fullerton, Calif.). 50 frames of cells were counted and the number of viable cells was determined. The cells were then diluted to 0.25 million cells per ml, and centrifuged at 200 rcf for 5 minutes. The media was removed and the cells were reconstituted in fresh media for plating. The cells were plated at 20 μl per well on the PerkinElmer® FlexDrop PLUS in Low Volume 384 Well White Tissue Culture Plates (Corning) with a final cell density of 5K cells per well. The plates were incubated overnight at 37° Celsius, 5% CO2.
On the second day, the compound plates were prepared, the cells were treated with compound and the pAkt reaction mix was added to the cell lysate. 384 well compound plates were prepared containing 1 μl of compound per well starting at 5 mM and diluted 1:2 across the row, resulting in a 22 well serial dilution. 39 μl of growth media was added to the compound plate in rows 1-22 using the PerkinElmer® FlexDrop PLUS resulting in a DMSO concentration of 2.5%. The cell plates and diluted compound plates were put onto the VELOCITY11™ VPREP™ 384 ST where the compound plate was mixed and 5 μl of serially diluted compound or controls was added to the cell plate. The final concentration of the compounds was 25 μM serially diluted to 11.9 pM in 0.5% DMSO. The cell plates were then incubated with compound for two hours at 37° Celsius, 5% CO2. After two hours, the media in the cell plates was aspirated using the BioTek® ELx405HT plate washer (Winooski, Vt.) removing the majority of media and compound without disturbing the adherent U87 cells. The following assay reagents are components of the SureFire® Akt (Ser 473) Phosphorylation 50K Point Kit (TGR BioSciences, Adelaide, Austalia) and an IgG Detection Kit (PerkinElmer, Waltham, Mass.). 5 μl of 1× Lysis Buffer was added to each well using the PerkinElmer® FlexDrop PLUS. The plates were then incubated at room temperature on a shaker for ten minutes. The AlphaScreen® reaction was prepared under low light conditions (subdued or green light) including p-Akt (Ser 473) Reaction Buffer, Dilution Buffer, Activation Buffer, Acceptor Beads and Donor Beads at a ratio of 40:20:10:1:1 respectively. The AlphaScreen® reaction was added to the cell lysate at 6 μl per well using the PerkinElmer® FlexDrop PLUS. The plates were placed in a humid environment to reduce edge effects and incubated overnight at room temperature with restricted air flow in the dark.
On the final day of the experiment, the plates were read on the PerkinElmer® EnVision™ 2103 Multilable Reader using the standard AlphaScreen® readout. The POC is calculated and the data is analyzed to report the IC50 IP for pAkt at Serine 473.
Activity data for the compounds tested in the PI3K cell based Akt assay is provided in Table 2 under the column heading U87

T1 sequence (P42336 whole entry): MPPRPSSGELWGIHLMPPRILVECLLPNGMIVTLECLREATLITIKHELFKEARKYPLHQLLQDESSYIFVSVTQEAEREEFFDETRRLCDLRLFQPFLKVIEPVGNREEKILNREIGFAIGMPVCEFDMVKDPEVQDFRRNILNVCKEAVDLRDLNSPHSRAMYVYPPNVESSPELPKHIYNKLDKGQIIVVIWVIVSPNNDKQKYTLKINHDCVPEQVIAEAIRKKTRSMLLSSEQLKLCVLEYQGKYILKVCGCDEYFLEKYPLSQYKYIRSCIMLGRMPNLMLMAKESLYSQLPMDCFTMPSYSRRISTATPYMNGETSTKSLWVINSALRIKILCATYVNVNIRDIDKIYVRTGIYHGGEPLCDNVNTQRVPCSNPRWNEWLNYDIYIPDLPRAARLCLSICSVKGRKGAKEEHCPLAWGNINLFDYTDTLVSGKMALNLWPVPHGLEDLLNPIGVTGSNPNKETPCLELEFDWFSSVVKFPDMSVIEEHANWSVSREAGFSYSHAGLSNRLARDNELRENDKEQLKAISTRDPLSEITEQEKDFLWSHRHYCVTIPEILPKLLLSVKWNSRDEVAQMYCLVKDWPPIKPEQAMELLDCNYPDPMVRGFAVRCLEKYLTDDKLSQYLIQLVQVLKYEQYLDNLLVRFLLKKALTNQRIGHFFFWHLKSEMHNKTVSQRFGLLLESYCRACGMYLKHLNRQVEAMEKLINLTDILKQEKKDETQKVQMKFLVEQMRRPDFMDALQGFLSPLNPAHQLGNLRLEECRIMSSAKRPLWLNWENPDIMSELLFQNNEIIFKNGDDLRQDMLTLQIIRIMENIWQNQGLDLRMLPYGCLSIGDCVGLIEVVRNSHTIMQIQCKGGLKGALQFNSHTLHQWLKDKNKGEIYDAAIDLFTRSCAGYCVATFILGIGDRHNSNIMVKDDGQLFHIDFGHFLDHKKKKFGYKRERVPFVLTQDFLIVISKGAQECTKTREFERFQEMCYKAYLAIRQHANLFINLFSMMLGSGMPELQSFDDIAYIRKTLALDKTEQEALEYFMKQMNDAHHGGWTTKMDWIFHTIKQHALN
T1 sequence (P27986 whole entry partner): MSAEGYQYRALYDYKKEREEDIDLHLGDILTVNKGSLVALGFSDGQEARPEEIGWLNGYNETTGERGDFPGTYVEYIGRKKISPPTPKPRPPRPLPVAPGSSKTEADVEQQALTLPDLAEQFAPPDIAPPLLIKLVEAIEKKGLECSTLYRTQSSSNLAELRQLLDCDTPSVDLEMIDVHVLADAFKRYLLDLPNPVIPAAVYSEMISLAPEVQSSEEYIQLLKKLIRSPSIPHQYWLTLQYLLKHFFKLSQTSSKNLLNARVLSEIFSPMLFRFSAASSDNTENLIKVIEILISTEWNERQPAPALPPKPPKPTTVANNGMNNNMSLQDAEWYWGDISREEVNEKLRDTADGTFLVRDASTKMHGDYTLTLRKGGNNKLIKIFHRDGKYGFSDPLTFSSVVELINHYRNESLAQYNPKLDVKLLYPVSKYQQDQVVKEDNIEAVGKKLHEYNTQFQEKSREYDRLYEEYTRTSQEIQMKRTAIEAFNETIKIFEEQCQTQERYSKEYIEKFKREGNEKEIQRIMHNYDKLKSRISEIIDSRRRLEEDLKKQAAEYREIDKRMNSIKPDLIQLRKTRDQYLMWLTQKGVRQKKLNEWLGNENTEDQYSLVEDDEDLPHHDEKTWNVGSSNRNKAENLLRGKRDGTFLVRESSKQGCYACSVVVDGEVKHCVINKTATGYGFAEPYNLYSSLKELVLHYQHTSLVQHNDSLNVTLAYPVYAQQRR

| SMILES | Ki (PI3Kα) [µM] | IC50 (mTOR) [µM] | IC50 [1] [µM] |
| --- | --- | --- | --- |
| C[C@@H]1CN(c2ccnc3ccc(-c4cnc(Cl)c(NS(C)(=O)=O)c4)cc23)C[C@@H](C)O1 (racemic) [Example 104, N-(2-chloro-5-(4-(2,6-dimethyl-4-morpholinyl)-6-quinolinyl)-3-pyridinyl)methanesulfonamide] | 0.0083 | 0.0058 | 0.0284 |
| CCN(Cc1noc(C2CC2)n1)c1ccnc2ccc(-c3cnc(Cl)c(NS(C)(=O)=O)c3)cc12 [Example 77, N-(2-chloro-5-(4-(((5-cyclopropyl-1,2,4-oxadiazol-3-yl)methyl)(ethyl)amino)-6-quinolinyl)-3-pyridinyl)methanesulfonamide] | 0.0184 | 0.0677 | 1.93 |
| CCN(CCC#N)c1ccnc2ccc(-c3cnc(Cl)c(NS(C)(=O)=O)c3)cc12 [Example 78, N-(2-chloro-5-(4-((2-cyanoethyl)(ethyl)amino)-6-quinolinyl)-3-pyridinyl)methanesulfonamide] | 0.0276 | 0.0117 | 0.193 |
| COC(C)(C)CNc1ccnc2ccc(-c3cnc(Cl)c(NS(C)(=O)=O)c3)cc12 [Example 79, N-(2-chloro-5-(4-((2-methoxy-2-methylpropyl)amino)-6-quinolinyl)-3-pyridinyl)methanesulfonamide] | 0.0823 | 0.363 | 2.83 |
| Cc1ccccc1OC1CCN(c2ccnc3ccc(-c4cnc(Cl)c(NS(C)(=O)=O)c4)cc23)C1 (stereo not drawn) [Example 80, N-(2-chloro-5-(4-(3-(2-methylphenoxy)-1-pyrrolidinyl)-6-quinolinyl)-3-pyridinyl)methanesulfonamide] | 0.0294 | 0.389 | 0.704 |
| COCC1CCCN1c1ccnc2ccc(-c3cnc(Cl)c(NS(C)(=O)=O)c3)cc12 (stereo not drawn) [Example 81, N-(2-chloro-5-(4-(2-(methoxymethyl)-1-pyrrolidinyl)-6-quinolinyl)-3-pyridinyl)methanesulfonamide] | 0.368 | 2.74 | 2.71 |
| CS(=O)(=O)Nc1cc(-c2ccc3nccc(N4CCC(c5ccccc5)CC4)c3c2)cnc1Cl [Example 82, N-(2-chloro-5-(4-(4-phenyl-1-piperidinyl)-6-quinolinyl)-3-pyridinyl)methanesulfonamide] | 0.0052 | 0.0167 | 0.364 |
| CC(c1ccccc1)N1CCN(c2ccnc3ccc(-c4cnc(Cl)c(NS(C)(=O)=O)c4)cc23)CC1 (stereo not drawn) [Example 83, N-(2-chloro-5-(4-(4-(1-phenylethyl)-1-piperazinyl)-6-quinolinyl)-3-pyridinyl)methanesulfonamide] | 0.0136 | 0.0821 | 0.758 |
| CS(=O)(=O)Nc1cc(-c2ccc3nccc(N4CCN(Cc5ccc6c(c5)OCO6)CC4)c3c2)cnc1Cl [Example 84, N-(5-(4-(4-(1,3-benzodioxol-5-ylmethyl)-1-piperazinyl)-6-quinolinyl)-2-chloro-3-pyridinyl)methanesulfonamide] | 0.0225 | 0.0487 | 0.289 |
| CN(Cc1cccc(F)c1)c1ccnc2ccc(-c3cnc(Cl)c(NS(C)(=O)=O)c3)cc12 [Example 85, N-(2-chloro-5-(4-((3-fluorobenzyl)(methyl)amino)-6-quinolinyl)-3-pyridinyl)methanesulfonamide] | 0.0158 | 0.0621 | 1.66 |
| CS(=O)(=O)Nc1cc(-c2ccc3nccc(N4Cc5ccc(F)cc5C4)c3c2)cnc1Cl [Example 86, N-(2-chloro-5-(4-(5-fluoro-1,3-dihydro-2H-isoindol-2-yl)-6-quinolinyl)-3-pyridinyl)methanesulfonamide] | 0.016 | 0.162 | 0.667 |
| COc1ccc(OC)c(CNc2ccnc3ccc(-c4cnc(Cl)c(NS(C)(=O)=O)c4)cc23)c1 [Example 87, N-(2-chloro-5-(4-((2,5-dimethoxybenzyl)amino)-6-quinolinyl)-3-pyridinyl)methanesulfonamide] | 0.0332 | 0.295 | 1.42 |
| CS(=O)(=O)Nc1cc(-c2ccc3nccc(NC4CCNCC4)c3c2)cnc1Cl [Example 88, N-(2-chloro-5-(4-(4-piperidinylamino)-6-quinolinyl)-3-pyridinyl)methanesulfonamide] | 0.161 | 1.77 | 6.84 |
| CC1(C)CN(c2ccnc3ccc(-c4cnc(Cl)c(NS(C)(=O)=O)c4)cc23)CCO1 [Example 90, N-(2-chloro-5-(4-(2,2-dimethyl-4-morpholinyl)-6-quinolinyl)-3-pyridinyl)methanesulfonamide] | 0.0107 | 0.0044 | 0.0484 |
| CS(=O)(=O)Nc1cc(-c2ccc3ncc(N4CCOCC4)nc3c2)cnc1Cl [Example 92, N-(2-chloro-5-(3-(4-morpholinyl)-6-quinoxalinyl)-3-pyridinyl)methanesulfonamide] | 0.0028 | 0.0283 | 0.084 |
| O=S(=O)(Nc1cc(-c2ccc3nccc(-c4ccnc(Cl)c4)c3c2)cnc1Cl)c1ccc(F)cc1 [Example 94, N-(2-chloro-5-(4-(2-chloro-4-pyridinyl)-6-quinolinyl)-3-pyridinyl)-4-fluorobenzenesulfonamide] | 0.0013 | 0.0006 | 0.0053 |
| C[C@@H]1CN(c2ccnc3ccc(-c4cnc(Cl)c(NS(=O)(=O)c5ccc(F)cc5)c4)cc23)C[C@H](C)O1 [Example 96, N-(2-chloro-5-(4-((2R,6S)-2,6-dimethyl-4-morpholinyl)-6-quinolinyl)-3-pyridinyl)-4-fluorobenzenesulfonamide] | 0.0068 | 0.011 | 0.0375 |
| O=S(=O)(Nc1cc(-c2ccc3nccc(N4CCOCC4)c3c2)cnc1Cl)c1cccnc1 [Example 101, N-(2-chloro-5-(4-(4-morpholinyl)-6-quinolinyl)-3-pyridinyl)-3-pyridinesulfonamide] | 0.0027 | 0.0036 | 0.0762 |
